Among the data in patent US20090275648A1, “MACROCYCLIC GHRELIN RECEPTOR ANTAGONISTS AND INVERSE AGONISTS AND METHODS OF USING THE SAME” (priority 2005, published 2009) are IC50 values, retold here.

For the experiment, the target named is ghrelin receptor (Homo sapiens, UniProt Q92847). As to the kind of experiment: Aequorin functional assay (ghrelin receptor), Example 3. The class given is cell-based. Set-up: host or cells: CHO-K1 cells co-expressing Gα16 and mitochondrially targeted Aequorin. To be noted: antagonist testing vs ghrelin at EC80 (3.7 nM). The source says:
The functional activity of compounds of the invention found to bind to the GHS-R1a receptor can be determined using the method described below. (LePoul, E.; et al. Adaptation of aequorin functional assay to high throughput screening. J. Biomol. Screen. 2002, 7, 57-65; Bednarek, M. A.; et al. Structure-function studies on the new growth hormone-releasing peptide ghrelin: minimal sequence of ghrelin necessary for activation of growth hormone secretagogue receptor 1a. J. Med. Chem. 2000, 43, 4370-4376; Palucki, B. L.; et al. Spiro(indoline-3,4′-piperidine) growth hormone secretagogues as ghrelin mimetics. Bioorg. Med. Chem. Lett. 2001, 11, 1955-1957).
Membranes were prepared using AequoScreen™ (EUROSCREEN, Belgium) cell lines expressing the human ghrelin receptor (cell line ES-410-A; receptor accession #60179). This cell line is constructed by transfection of the human ghrelin receptor into CHO-K1 cells co-expressing Gα16 and the mitochondrially targeted Aequorin (Ref #ES-WT-A5). • 1. Ghrelin (reference agonist; Bachem, #H-4864) • 2. Assay buffer: DMEM (Dulbecco's Modified Eagles Medium) containing 0.1% BSA (bovine serum albumin; pH 7.0. • 3. Coelenterazine (Molecular Probes, Leiden, The Netherlands)
Stock solutions of compounds (10 mM in 100% DMSO) were provided frozen on dry ice and stored at −20° C. prior to use. From the stock solution, mother solutions were made at a concentration of 500 μM 20-fold dilution in 26% DMSO. Assay plates were then prepared by appropriate dilution in DMEM medium containing 0.1% BSA. Under these conditions, the maximal final DMSO concentration in the assay was <0.6%.
AequoScreen™ cells were collected from culture plates with Ca^2+ and Mg^2+-free phosphate buffered saline (PBS) supplemented with 5 mM EDTA, pelleted for 2 minutes at 1000×g, re-suspended in DMEM-Ham's F12 containing 0.1% BSA at a density of 5×10^6 cells/ml and incubated overnight at room temperature in the presence of 5 μM coelenterazine. After loading, cells were diluted with assay buffer to a concentration of 5×10^5 cells/ml.
For agonist testing, 50 μl of the cell suspension was mixed with 50 μl of the appropriate concentration of test compound or ghrelin (reference agonist) in 96-well plates (duplicate samples). Ghrelin (reference agonist) is tested at several concentrations concurrently with the test compounds in order to validate the experiment. The emission of light resulting from receptor activation in response to ghrelin or test compounds was recorded using the Hamamatsu FDSS 6000 reader (Hamamatsu Photonics K.K., Japan).
For antagonist testing, an approximate EC80 concentration of ghrelin (i.e. 3.7 nM; 100 μL) was injected onto the cell suspension containing the test compounds (duplicate samples) 15-30 minutes after the end of agonist testing and the consequent emission of light resulting from receptor activation was measured as described in the paragraph above.
Results are expressed as Relative Light Units (RLU). […] For agonist testing, results for each concentration of test compound were expressed as percent activation relative to the signal induced by ghrelin at a concentration equal to the EC80 (i.e. 3.7 nM). EC50, Hill slope and % Emax values are reported.
For antagonist testing, results for each concentration of test compound were expressed as percent inhibition relative to the signal induced by ghrelin at a concentration equal to the EC80.

Structures are written as SMILES.

Chain of ghrelin receptor (Q92847 whole entry): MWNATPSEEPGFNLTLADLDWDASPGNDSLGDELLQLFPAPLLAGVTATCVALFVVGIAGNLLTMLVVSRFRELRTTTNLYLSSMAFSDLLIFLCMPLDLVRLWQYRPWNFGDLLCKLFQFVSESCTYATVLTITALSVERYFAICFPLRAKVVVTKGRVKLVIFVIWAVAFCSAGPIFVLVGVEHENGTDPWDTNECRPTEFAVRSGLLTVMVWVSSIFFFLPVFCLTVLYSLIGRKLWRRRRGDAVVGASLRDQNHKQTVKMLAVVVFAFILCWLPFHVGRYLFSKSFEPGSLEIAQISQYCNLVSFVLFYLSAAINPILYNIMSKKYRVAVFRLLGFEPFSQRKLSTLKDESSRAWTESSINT

Turning to `CCC(C)[C@@H]1NCCOc2ccccc2/C=C/CNC(=O)[C@@H](Cc2ccccc2)NC(=O)[C@H](C(C)O)N(C)C1=O` (stereo partly shown) [Compound 502], the IC50 lay in the range of 1 to 100 nM.
